20 compounds from patent US8263605B2, “Modulators of muscarinic receptors” (Vertex Pharmaceutical Incorporated, priority 2006, dated 2012) can be followed below.

In one assay the target is T1, M1 muscarinic receptor (Homo sapiens, UniProt P11229).
T1 construct: expressed in transfected cells; host or cells: CHO (M1-CHO)
T1 sequence (P11229 1-460): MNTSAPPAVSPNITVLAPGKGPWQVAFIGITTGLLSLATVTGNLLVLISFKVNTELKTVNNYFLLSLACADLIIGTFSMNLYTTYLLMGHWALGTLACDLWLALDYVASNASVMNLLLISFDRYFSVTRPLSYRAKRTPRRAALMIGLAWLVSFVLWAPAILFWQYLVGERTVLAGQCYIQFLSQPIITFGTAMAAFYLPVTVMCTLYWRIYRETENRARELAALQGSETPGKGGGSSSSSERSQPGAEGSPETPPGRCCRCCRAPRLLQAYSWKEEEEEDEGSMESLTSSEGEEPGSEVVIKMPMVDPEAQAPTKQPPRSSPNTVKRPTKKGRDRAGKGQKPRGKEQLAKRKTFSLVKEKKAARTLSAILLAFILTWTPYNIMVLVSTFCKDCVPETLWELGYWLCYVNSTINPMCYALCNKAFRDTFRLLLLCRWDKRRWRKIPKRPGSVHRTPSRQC
Nature of the assay: Functional mobilization of intracellular calcium (FLIPR), M1-CHO cells. The format is cell-based. Particulars: for Emax: 100% efficacy is the maximum response obtained with the Carbachol control; for M1 Activity: CHO cells expressing M1, calcium mobilization. The essentials:
(§1)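 Recombinant CHO cells loaded with Fluo-3 AM or Calcium 3 dye; fluorescence recorded 60 s on FLIPR in pH 7.4 buffer with 1 mM probenecid, 0.5% DMSO. Agonist mode: compound alone; antagonist mode: 15 min preincubation (or co-application) then carbachol at EC80. Efficacy relative to maximal carbachol response.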

A further assay concerns the target T2, M4 muscarinic receptor (Homo sapiens, UniProt P08173).
T2 construct: expressed in transfected cells; host or cells: CHO (M4-CHO)
T2 sequence (P08173 1-479): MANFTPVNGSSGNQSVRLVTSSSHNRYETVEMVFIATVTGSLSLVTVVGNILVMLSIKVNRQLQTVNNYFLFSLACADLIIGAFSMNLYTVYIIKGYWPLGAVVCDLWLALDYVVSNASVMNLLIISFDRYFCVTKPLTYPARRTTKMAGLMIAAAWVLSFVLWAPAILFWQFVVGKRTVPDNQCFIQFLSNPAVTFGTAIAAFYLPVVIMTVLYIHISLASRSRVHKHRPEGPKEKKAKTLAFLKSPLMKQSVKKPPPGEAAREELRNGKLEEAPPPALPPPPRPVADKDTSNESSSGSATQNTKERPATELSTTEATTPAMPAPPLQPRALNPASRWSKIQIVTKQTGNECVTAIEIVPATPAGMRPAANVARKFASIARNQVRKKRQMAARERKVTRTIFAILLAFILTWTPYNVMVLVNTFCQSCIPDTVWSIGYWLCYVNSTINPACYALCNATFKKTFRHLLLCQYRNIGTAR
Nature of the assay: Functional mobilization of intracellular calcium (FLIPR), M4-CHO cells. The format is cell-based. Conditions: for Emax: 100% efficacy is the maximum response obtained with the Carbachol control; for M4 Activity: CHO cells expressing M4, calcium mobilization. The essentials:
as §1

As for `CCC#CCOC(=O)N1CC[C@H](CN2CCC3(CC2)CN(C(=O)N(C)C)c2ccccc23)C1` [compound 102], on M1 muscarinic receptor, the Emax lay within 25 to 100% and the “M1 Activity” value is reported as “+++ (activity was measured to be less than 2.0 μM)”. In addition, at M4 muscarinic receptor, the Emax was greater than 100% and the “M4 Activity” value is on record as “+++ (activity was measured to be less than 2.0 μM)”.

As to `COC(=O)N1CCC(N2CCC3(CCN(C(C)=O)c4ccccc43)CC2)CC1` [compound 10], at M1 muscarinic receptor, the Emax was 25 to 100% and the “M1 Activity” value is recorded as “+++ (activity was measured to be less than 2.0 μM)”. Further, at M4 muscarinic receptor, the Emax lay in the range of 25 to 100% and the “M4 Activity” value is reported as “+++ (activity was measured to be less than 2.0 μM)”.

Take `C#CCOC(=O)N1CC[C@H](CN2CCC3(CC2)CN(C(=O)N(C)C)c2ccccc23)C1` [compound 100]: on M1 muscarinic receptor, the Emax lay in the range of 25 to 100% and the “M1 Activity” value is reported as “+++ (activity was measured to be less than 2.0 μM)”. At M4 muscarinic receptor, the Emax lay in the range of 25 to 100% and the “M4 Activity” value is reported as “+++ (activity was measured to be less than 2.0 μM)”.

For `COC(=O)N1CCCC(N2CCC3(CC2)CN(C(=O)N(C)C)c2ccccc23)CCC1` [compound 80], on M1 muscarinic receptor, the Emax fell in the range of 25 to 100% and the “M1 Activity” value is “+++ (activity was measured to be less than 2.0 μM)”. In addition, at M4 muscarinic receptor, the Emax was greater than 100% and the “M4 Activity” value is “+++ (activity was measured to be less than 2.0 μM)”.

For `COC(=O)N1CCC(N2CCC3(CCN(C(=O)N(C)C)c4ccccc43)CC2)CC1` [compound 2], on M1 muscarinic receptor, the Emax lay in the range of 25 to 100% and the “M1 Activity” value is “+++ (activity was measured to be less than 2.0 μM)”. Also, on M4 muscarinic receptor, the Emax is 25 to 100% and the “M4 Activity” value is “+++ (activity was measured to be less than 2.0 μM)”.

Consider `CCOC(=O)N1CC[C@@H](CN2CCC3(CC2)CN(C(=O)N(C)C)c2ccccc23)C1` [compound 96], for which, on M1 muscarinic receptor, the Emax lay in the range of 25 to 100% and the “M1 Activity” value is given as “+++ (activity was measured to be less than 2.0 μM)”. Besides, at M4 muscarinic receptor, the maximum response (Emax) was greater than 100% and the “M4 Activity” value is listed as “+++ (activity was measured to be less than 2.0 μM)”.

In the case of `COCCOC(=O)N1CC[C@H](CN2CCC3(CC2)CN(C(=O)N(C)C)c2ccccc23)C1` [compound 64], on M1 muscarinic receptor, the Emax was 25 to 100% and the “M1 Activity” value is given as “++ (activity was measured to be from 2.0 μM to 10.0 μM)”. For the same compound, at M4 muscarinic receptor, the Emax was in the range of 25 to 100% and the “M4 Activity” value is reported as “+++ (activity was measured to be less than 2.0 μM)”.

For the compound `C=Cc1cncc(N2CCC(N3CCC4(CC3)CN(C(=O)N(C)C)c3ccccc34)CC2)n1` [compound 114], at M1 muscarinic receptor, the Emax is less than 25% and the “M1 Activity” value was “+ (activity was measured to be greater than 10.0 μM)”. Also, at M4 muscarinic receptor, the Emax fell in the range of 25 to 100% and the “M4 Activity” value is given as “+++ (activity was measured to be less than 2.0 μM)”.

`COC(=O)N1CC[C@@H](CN2CCC3(CC2)CN(C(=O)N(C)C)c2ccccc23)C1` [compound 54]: at M1 muscarinic receptor, the Emax lay in the range of 25 to 100% and the “M1 Activity” value is recorded as “+++ (activity was measured to be less than 2.0 μM)”. Further, on M4 muscarinic receptor, the Emax was in the range of 25 to 100% and the “M4 Activity” value is given as “+++ (activity was measured to be less than 2.0 μM)”.

Turning to `CCc1nsc(N2CCC(N3CCC4(CCN(C(C)=O)c5ccccc54)CC3)CC2)n1` [compound 16], on M1 muscarinic receptor, the Emax is 25 to 100% and the “M1 Activity” value is “+++ (activity was measured to be less than 2.0 μM)”. Besides, on M4 muscarinic receptor, the Emax fell in the range of 25 to 100% and the “M4 Activity” value was “+++ (activity was measured to be less than 2.0 μM)”.

Regarding `Cc1nsc(N2CCC(C)(N3CCC4(CC3)CN(C(=O)N(C)C)c3ccccc34)CC2)n1` [compound 115], on M1 muscarinic receptor, the Emax is less than 25% and the “M1 Activity” value is listed as “+ (activity was measured to be greater than 10.0 μM)”. Besides, at M4 muscarinic receptor, the Emax was less than 25% and the “M4 Activity” value was “+++ (activity was measured to be less than 2.0 μM)”.

Take `CN(C)C(=O)N1CCC2(CCN(C3CC4CCC(C3)N4c3cnccn3)CC2)c2ccccc21` (centres unmarked) [compound 30]: on M1 muscarinic receptor, the maximum response (Emax) was in the range of 25 to 100% and the “M1 Activity” value is “+++ (activity was measured to be less than 2.0 μM)”. For the same compound, on M4 muscarinic receptor, the Emax is 25 to 100% and the “M4 Activity” value is listed as “+++ (activity was measured to be less than 2.0 μM)”.

As for `Cc1csc(N2CCC(N3CCC4(CC3)CN(C(=O)N(C)C)c3ccccc34)CC2)n1` [compound 91], at M1 muscarinic receptor, the Emax lay in the range of 25 to 100% and the “M1 Activity” value was “++ (activity was measured to be from 2.0 μM to 10.0 μM)”. In addition, at M4 muscarinic receptor, the Emax lay in the range of 25 to 100% and the “M4 Activity” value is listed as “+++ (activity was measured to be less than 2.0 μM)”.

Turning to `C#CCCOC(=O)N1C2CCC1CC(N1CCC3(CC1)CN(C(=O)N(C)C)c1ccccc13)C2` (centres unmarked) [compound 51], on M1 muscarinic receptor, the Emax lay in the range of 25 to 100% and the “M1 Activity” value is given as “+++ (activity was measured to be less than 2.0 μM)”. Moreover, at M4 muscarinic receptor, the Emax fell in the range of 25 to 100% and the “M4 Activity” value is “+++ (activity was measured to be less than 2.0 μM)”.

For `CCOC(=O)N1CCC(N2CCC3(CC2)CN(C(=O)N(C)C)c2ccccc23)CC1` [Compound No. 39, ethyl 4-(1-(dimethylcarbamoyl)spiro[indoline-3,4′-piperidine]-1′-yl)piperidine-1-carboxylate], on M1 muscarinic receptor, the Emax lay within 25 to 100% and the “M1 Activity” value is given as “+++ (activity was measured to be less than 2.0 μM)”. For the same compound, at M4 muscarinic receptor, the Emax was in the range of 25 to 100% and the “M4 Activity” value is on record as “+++ (activity was measured to be less than 2.0 μM)”.

As to `Cc1csc(N2CCC(N3CCC4(CCN(C(=O)N(C)C)c5ccccc54)CC3)CC2)n1` [compound 22], on M1 muscarinic receptor, the Emax lay within 25 to 100% and the “M1 Activity” value is “++ (activity was measured to be from 2.0 μM to 10.0 μM)”. For the same compound, at M4 muscarinic receptor, the Emax was 25 to 100% and the “M4 Activity” value is listed as “++ (activity was measured to be from 2.0 μM to 10.0 μM)”.

With `CCCOC(=O)N1CC[C@@H](CN2CCC3(CC2)CN(C(=O)N(C)C)c2ccccc23)C1` [compound 55], at M1 muscarinic receptor, the Emax was less than 25% and the “M1 Activity” value is listed as “++ (activity was measured to be from 2.0 μM to 10.0 μM)”. Further, on M4 muscarinic receptor, the Emax was 25 to 100% and the “M4 Activity” value is reported as “+++ (activity was measured to be less than 2.0 μM)”.

Take `COC(=O)N1CCC(N2CCC3(CC2)CN(C(=O)N(C)C)c2ccccc23)CC1` [compound 38]: on M1 muscarinic receptor, the Emax is 25 to 100% and the “M1 Activity” value was “++ (activity was measured to be from 2.0 μM to 10.0 μM)”. For the same compound, at M4 muscarinic receptor, the Emax lay within 25 to 100% and the “M4 Activity” value is listed as “+++ (activity was measured to be less than 2.0 μM)”.

With `CC#CCOC(=O)N1CCCC(N2CCC3(CC2)CN(C(=O)N(C)C)c2ccccc23)CC1` (centres unmarked) [compound 105], on M1 muscarinic receptor, the Emax was greater than 100% and the “M1 Activity” value is reported as “+++ (activity was measured to be less than 2.0 μM)”. Also, on M4 muscarinic receptor, the Emax was greater than 100% and the “M4 Activity” value was “+++ (activity was measured to be less than 2.0 μM)”.

With `Cc1cncc(N2CCC(N3CCC4(CC3)CN(C(=O)N(C)C)c3ccccc34)CC2)n1` [compound 79], on M1 muscarinic receptor, the Emax lay in the range of 25 to 100% and the “M1 Activity” value is given as “+++ (activity was measured to be less than 2.0 μM)”. At M4 muscarinic receptor, the Emax lay within 25 to 100% and the “M4 Activity” value was “+++ (activity was measured to be less than 2.0 μM)”.
